Laboratory results: patent US20140205553A1, “AGENT FOR ENHANCING THE EFFECT OF SKIN-WHITENING INGREDIENTS AND USES THEREOF” (Hayashibara Co., Ltd., priority 2010, published 2014)
Where two headings read alike, the source gives them in different places.

System: mouse B16 melanoma cells
Experiment: Melanin formation by mouse B16 melanoma cells cultured with test samples (melanin content, absorbance 450 nm)
Type: cell-based
Method: The effect of nucleic-acid-related compounds on melanin-formation inhibition was evaluated by using mouse B16 melanoma cells frequently used as an index for evaluating skin-whitening agents used in external dermatological agents. Since nucleic-acid-related compounds are roughly classified into purine and pyrimidine compounds, the following respective representative compounds were used as test samples. […] Thereafter, cells were collected after adding trypsin-EDTA to each well and subjecting the resultant to centrifugation. The collected cells were washed once with Dulbecco's PBS (-) (abbreviated as “D-PBS”, hereinafter) and centrifuged to remove the supernatant. To the remaining cell pellet was added 0.5 ml of 1N sodium hydroxide to solubilize the cells. The resulting alkali-solubilized solution was boiled for 30 min and determined for melanin content by the following method. […] Each of these wells was assayed for melanin content similarly as above. […] In this and the following experiments, it means that the lower the melanin formation percentage, the higher the melanin-formation inhibitory effect, i.e., the skin-whitening effect.

[1] = test sample 1 μM in liquid culture medium, 5 days, negative control = 100
[2] = test sample 5 μM in liquid culture medium, 5 days, negative control = 100
[3] = Experiment 1, test sample 10 μM
[4] = Mus musculus, B16, 120 h, molar ratio guanine:adenine or equol 0:1, total concentration 5 μM, read-out: Melanin formation percentage
[5] = Mus musculus, B16, 120 h, test sample 2.5 μM in liquid culture medium, 5 days, negative control = 100, read-out: Melanin formation percentage
[6] = Mus musculus, B16, 120 h, test sample 5 μM in liquid culture medium, 5 days, negative control = 100, read-out: Melanin formation percentage
[7] = Mus musculus, B16, 120 h, test sample 10 μM in liquid culture medium, 5 days, negative control = 100, read-out: Melanin formation percentage
[8] = Mus musculus, B16, 120 h, test sample 20 μM in liquid culture medium, 5 days, negative control = 100, read-out: Melanin formation percentage
[9] = Experiment 2, test sample 5 μM alone
[10] = Mus musculus, B16, 120 h, test sample 1 μM in liquid culture medium, 5 days, negative control = 100, read-out: Melanin formation percentage
[11] = test sample 10 μM in liquid culture medium, 5 days, negative control = 100
[12] = test sample 20 μM in liquid culture medium, 5 days, negative control = 100

OC[C@H]1O[C@H](Oc2ccc([C@H]3COc4cc(O)ccc4C3)cc2)[C@H](O)[C@@H](O)[C@@H]1O [4′-Glucosyl-S-equol, 4′-O-α-D-glycopyranosyl-S-equol]
Melanin formation percentage [1]: 85%
Melanin formation percentage [2]: 74%

OC[C@H]1O[C@H](Oc2ccc3c(c2)OC[C@H](c2ccc(O)cc2)C3)[C@H](O)[C@@H](O)[C@@H]1O [7-Glucosyl-S-equol, 7-O-α-D-glycopyranosyl-S-equol]
Melanin formation percentage [1]: 85%
Melanin formation percentage [2]: 75%

Nc1ncnc2nc[nH]c12 [Adenine]
Melanin-formation inhibition (in words) [3]: inhibited
activity at 5 µM [4]: 83%
activity at 2.5 µM [5]: 95%
activity at 5 µM [6]: 83%
activity at 10 µM [7]: 60%
activity at 20 µM [8]: 39%

Nc1ncnc2c1ncn2[C@@H]1O[C@H](COP(=O)(O)OP(=O)(O)O)[C@@H](O)[C@H]1O [Adenosine 5′-diphosphate, adenosine 5′-diphosphate]
activity at 5 µM [6]: 93%
activity at 10 µM [7]: 81%
activity at 20 µM [8]: 51%

Nc1ncnc2c1ncn2[C@@H]1O[C@H](COP(=O)(O)O)[C@@H](O)[C@H]1O [Adenosine 5′-monophosphate, adenosine 5′-monophosphate]
activity at 2.5 µM [5]: 97%
activity at 5 µM [6]: 100%
activity at 10 µM [7]: 82%
activity at 20 µM [8]: 60%

Nc1ncnc2c1ncn2[C@@H]1O[C@H](COP(=O)(O)OP(=O)(O)OP(=O)(O)O)[C@@H](O)[C@H]1O [Adenosine 5′-triphosphate, adenosine 5′-triphosphate]
activity at 5 µM [6]: 93%
activity at 10 µM [7]: 80%
activity at 20 µM [8]: 53%

Nc1ncnc2c1ncn2[C@@H]1O[C@H](CO)[C@@H](O)[C@H]1O [Adenosine, adenosine]
activity at 2.5 µM [5]: 98%
activity at 5 µM [6]: 94%
activity at 10 µM [7]: 71%
activity at 20 µM [8]: 48%

Nc1cc[nH]c(=O)n1 [Cytosine, reference compound]
Melanin-formation inhibition (in words) [3]: no melanin-formation inhibition was observed
Melanin-formation inhibition (in words) [9]: No melanin-formation inhibition was found
activity at 5 µM [6]: 98%
activity at 10 µM [7]: 100%

Oc1ccc([C@H]2COc3cc(O)ccc3C2)cc1 [Equol, equol]
activity at 5 µM [4]: 91%
activity at 1 µM [10]: 91%
activity at 5 µM [6]: 67%
Enhancement of the skin-whitening (melanin-formation-inhibitory) action in combination (in words) (skin-whitening ingredient together with guanine including derivatives or other nucleic-acid-related compound): enhanced

Nc1nc2nc[nH]c2c(=O)[nH]1 [Guanine]
Melanin-formation inhibition (in words) [3]: no melanin-formation inhibition was observed
Melanin-formation inhibition (in words) [9]: No melanin-formation inhibition was found
activity at 5 µM (Mus musculus, B16, 120 h, read-out: Melanin formation percentage, molar ratio guanine:adenine or equol 1:0, total concentration 5 μM): 98%
activity at 1 µM (Mus musculus, B16, 120 h, read-out: Melanin formation percentage, test sample 1 μM in liquid culture medium, 5 days, negative control = 100): 100%
activity at 2.5 µM (Mus musculus, B16, 120 h, read-out: Melanin formation percentage, test sample 2.5 μM in liquid culture medium, 5 days, negative control = 100): 99%
activity at 5 µM (Mus musculus, B16, 120 h, read-out: Melanin formation percentage, test sample 5 μM in liquid culture medium, 5 days, negative control = 100): 98%
activity at 10 µM (Mus musculus, B16, 120 h, read-out: Melanin formation percentage, test sample 10 μM in liquid culture medium, 5 days, negative control = 100): 98%
activity at 20 µM (Mus musculus, B16, 120 h, read-out: Melanin formation percentage, test sample 20 μM in liquid culture medium, 5 days, negative control = 100): 101%

Nc1nc2c(ncn2[C@@H]2O[C@H](COP(=O)(O)OP(=O)(O)O)[C@@H](O)[C@H]2O)c(=O)[nH]1 [Guanosine 5′-diphosphate, guanosine 5′-diphosphate]
activity at 5 µM [6]: 93%
activity at 10 µM [7]: 100%
activity at 20 µM [8]: 95%

Nc1nc2c(ncn2[C@@H]2O[C@H](COP(=O)(O)O)[C@@H](O)[C@H]2O)c(=O)[nH]1 [Guanosine 5′-monophosphate, guanosine 5′-monophosphate]
activity at 1 µM [10]: 99%
activity at 2.5 µM [5]: 99%
activity at 5 µM [6]: 100%
activity at 10 µM [7]: 101%
activity at 20 µM [8]: 101%

Nc1nc2c(ncn2[C@@H]2O[C@H](COP(=O)(O)OP(=O)(O)OP(=O)(O)O)[C@@H](O)[C@H]2O)c(=O)[nH]1 [Guanosine 5′-triphosphate, guanosine 5′-triuphosphate]
Melanin formation percentage [2]: 95%
Melanin formation percentage [11]: 98%
Melanin formation percentage [12]: 97%

Nc1nc2c(ncn2[C@@H]2O[C@H](CO)[C@@H](O)[C@H]2O)c(=O)[nH]1 [Guanosine, guanosine]
activity at 1 µM [10]: 99%
activity at 2.5 µM [5]: 98%
activity at 5 µM [6]: 98%
activity at 10 µM [7]: 102%
activity at 20 µM [8]: 97%

O=c1[nH]cnc2nc[nH]c12 [Hypoxanthine, reference compound]
Melanin-formation inhibition (in words) [3]: no melanin-formation inhibition was observed
Melanin-formation inhibition (in words) [9]: No melanin-formation inhibition was found
activity at 5 µM [6]: 97%
activity at 10 µM [7]: 97%

OC[C@H]1O[C@@H](n2cnc3c(O)ncnc32)[C@H](O)[C@@H]1O [Inosine, reference compound]
Melanin-formation inhibition (in words) [3]: no melanin-formation inhibition was observed
Melanin-formation inhibition (in words) [9]: No melanin-formation inhibition was found
activity at 5 µM [6]: 98%
activity at 10 µM [7]: 96%

O=c1cc(CO)occ1O [Kojic acid, reference compound]
activity at 500 µM (Mus musculus, B16, 120 h, test sample 500 μM in liquid culture medium, 5 days, negative control = 100, read-out: Melanin formation percentage): 71%
activity at 1000 µM (Mus musculus, B16, 120 h, test sample 1000 μM in liquid culture medium, 5 days, negative control = 100, read-out: Melanin formation percentage): 49%
activity at 2000 µM (Mus musculus, B16, 120 h, test sample 2000 μM in liquid culture medium, 5 days, negative control = 100, read-out: Melanin formation percentage): 30%
Melanin-formation-inhibitory action of the test sample alone (in words) (at the concentrations used in the experiment): inhibited the melanin formation by mouse B16 melanoma cells in a concentration dependent manner

Oc1ccc([C@@H]2COc3cc(O)ccc3C2)cc1 [R-Equol, R-equol]
Melanin formation percentage [1]: 94%
Melanin formation percentage [2]: 77%

Oc1ccc([C@H]2COc3cc(O)ccc3C2)cc1 [S-Equol, S-equol]
Melanin formation percentage [1]: 86%
Melanin formation percentage [2]: 60%

Cc1c[nH]c(=O)[nH]c1=O [Thymine, reference compound]
Melanin-formation inhibition (in words) [3]: no melanin-formation inhibition was observed
Melanin-formation inhibition (in words) [9]: No melanin-formation inhibition was found
activity at 5 µM [6]: 99%
activity at 10 µM [7]: 97%

O=c1cc[nH]c(=O)[nH]1 [Uracil, reference compound]
Melanin-formation inhibition (in words) [3]: no melanin-formation inhibition was observed
Melanin-formation inhibition (in words) [9]: No melanin-formation inhibition was found
activity at 5 µM [6]: 98%
activity at 10 µM [7]: 99%

O=c1[nH]c(=O)c2[nH]cnc2[nH]1 [Xanthine, reference compound]
Melanin-formation inhibition (in words) [3]: no melanin-formation inhibition was observed
Melanin-formation inhibition (in words) [9]: No melanin-formation inhibition was found
activity at 5 µM [6]: 100%
activity at 10 µM [7]: 100%

glucosyladenosine
Melanin formation percentage [2]: 89%
Melanin formation percentage [11]: 63%
Melanin formation percentage [12]: 43%

glucosylguanosine
Melanin formation percentage [1]: 99%
Melanin formation percentage (test sample 2.5 μM in liquid culture medium, 5 days, negative control = 100): 98%
Melanin formation percentage [2]: 98%
Melanin formation percentage [11]: 99%
Melanin formation percentage [12]: 99%
